{"source": "patent US20220291238A1", "about": "“Methods for Predicting Treatment Response in Ulcerative Colitis” (Janssen Biotech, Inc., priority 2021, published 2022)", "molecules": {"B1": {"name": "IFNγ: human recombinant IFNγ (20 ng/mL) used on human colonoids (protein, UniProt P01579 24-161, looked up)", "Interferon gamma": "QDPYVKEAENLKKYFNAGHSDVADNGTLFLGILKNWKEESDRKIMQSQIVSFYFKLFKNFKDDQSIQKSVETIKEDMNVKFFNSNKKKRDDFEKLTNYSVTDLNVQRKAIHELIQVMAELSPAAKTGKRKRSQMLFRG"}}, "key": {"[1]": {"test_system": "lamina propria mononuclear cells (LPMC)", "assay": "IL23 stimulation of LPMC from UC patients, RNA-seq", "assay_type": "cell-based, human", "method": "Human LPMC isolation: Colonic mucosal biopsies were obtained from UC patients (n=5) with endoscopically active disease (Mayo endoscopic subscore ≥2). LPMCs were isolated using a non-digestion, ‘walk out’ method previously published (Di Marco Barros et al., 2016, Cell 167, 203-218). In brief, 9 mm×9 mm×1.5 mm Cellfoam matrices (Cytomatrix PTY Ltd; Victoria, Australia) were autoclaved and incubated in 100 μg/mL rat tail collagen I (BD Biosciences; San Jose, Calif.) in PBS for 30 min at 37° C. and washed twice in PBS. Biopsies were washed for 20 min in 5 mL wash medium (RPMI 1640 10% FCS, β-mercaptoethanol, penicillin (500U/ml), streptomycin ([…]), metronidazole (5 mg/ml), gentamicin ([…], Sigma-Aldrich) and amphotericin 12.5 mg/ml (Thermo Fisher Scientific; Waltham, Mass.)). One endoscopic biopsy was placed on top of each matrix, which was then inverted and pressure was applied to crush the biopsy into the matrix. The matrices were placed into a 24-well plate (1 per well) and covered with 2 mL RPMI 1640 (supplemented with 10% FCS, β-mercaptoethanol, penicillin (100 U/ml), streptomycin ([…]), metronidazole (1 mg/ml), gentamicin (20 mg/ml), amphotericin (2.5 mg/ml)) and IL-2 (100U/mL, Novartis Pharmaceutical UK; London, United Kingdom). Cells were harvested and residual biopsy and empty wells were washed with PBS 0.02 mM HEPES. The cell suspension was passed through a […] nylon cell strainer, centrifuged at 400 g for 5 minutes.\nAfter LPMC isolation, a cell count was performed using a hemochromocytometer and 200,000 cells were placed in each well of a 96 well round bottomed plate until the supply was exhausted. Complete media either with or without IL23 (10 ng/ml Biolegend; San Diego, Calif.) was added to each well to a total volume of 200 μl and incubated at 37° C. at 5% CO2 for 4 hours. Then cells from wells treated in the same condition were combined in a 1.5 ml RNAse free Eppendorf. The Eppendorfs were centrifuged at 1200 g for 5 minutes, the supernatant was removed and 800 μl Qiazol (Qiagen, Germany) added and mechanically homogenized using a needle and syringe.\n(§1) RNA extraction: Colonoids and LPMC were treated in a similar fashion. Cells were lysed and RNA was extracted using the RNAeasy kit (Qiagen; Hilden, Germany). This step was optimized balancing the effectiveness of elimination of DNA quantified (Qubit dsDNA HS assay kit) versus the loss of quantity of RNA (Qubit RNA BR assay kit). Optimal DNAse I concentration was determined to be ×5 the standard concentration. 500 ng of cDNA was then created using Revertaid cDNA synthesis kit (ThermoFisher) and diluted to a concentration of 6.25 ng/μl. Harvested colonoids were put in Qiazol and then RNA was extracted with the RNAeasy kit (Qiagen) as per manufacturer's guidelines. cDNA was created using the Revertaid cDNA synthesis kit (ThermoFisher).\nLibrary preparation and sequencing: A total amount of 3 μg RNA per sample was used as input material for the RNA sample preparations. Sequencing libraries were generated using NEBNextR Ultra™ RNA Library Prep Kit for IlluminaR (NEB, Ipswich, Mass.) following manufacturer's recommendations and index codes were added to attribute sequences to each sample. Briefly, mRNA was purified from total RNA using poly-T oligo-attached magnetic beads. Fragmentation was carried out using divalent cations under elevated temperature in NEBNext First Strand Synthesis Reaction Buffer (5×). First strand cDNA was synthesized using random hexamer primer and M-MuLV Reverse Transcriptase (RNase H-). Second strand cDNA synthesis was subsequently performed using DNA Polymerase I and RNase H. Remaining overhangs were converted into blunt ends via exonuclease/polymerase activities. After adenylation of 3′ ends of DNA fragments, NEBNext Adaptor with hairpin loop structure were ligated to prepare for hybridization. […]"}, "[2]": {"test_system": "patients with moderate-to-severe UC", "assay": "UNIFI phase 3 trial: ustekinumab induction in UC patients stratified by baseline IL22 enrichment score", "assay_type": "in vivo, human", "conditions": "week 8", "excerpt": "Gene Set Variation Analysis: To test the activation of each of the cytokine regulated transcriptional programs we used gene set variation analysis (GSVA) (56) to probe whole transcriptional profiles of previously reposited datasets and the dataset generated in the context of the ustekinumab and golimumab trials programs.\nUNIFI trial programme: The UNIFI trial was a randomized placebo-controlled phase 3 clinical trial evaluating the efficacy and safety of ustekinumab (NCT02407236) and has already been reported (43). In this study, for the first time, transcriptional data from biopsies were reported, which were correlated to clinical, endoscopic and biomarker data available from the UNIFI cohort. Colonic biopsies were sampled at defined time points after institution of treatment in a subset of patients and were immediately transferred to RNALater (Qiagen) and stored at −80° C. prior to RNA extraction. Whole genome transcriptomics were performed on the Affymetrix HG U133 PM array. Clinical data was recorded prospectively according to the trial protocol. Outcomes reported include: clinical remission (defined as a total Mayo score of ≤2 and no subscore >1) and deep remission (which required both histologic improvement (defined as neutrophil infiltration in <5% of crypts, no crypt destruction, and no erosions, ulcerations, or granulation tissue) and endoscopic improvement) at week 8. Analysis presented is based on all patients receiving ustekinumab regardless of dose (130 mg and 6 mg/kg).\nNext, it was determined whether core transcripts regulated by the IL23/IL22 axis were differentially expressed in diseased tissue of UC patients. Gene Set Variation Analysis (GSVA) is an algorithm which tests whether entire transcriptional programmes are enriched in complex and heterogeneous samples. […] Endoscopically acquired colonic biopsies were sampled from the sigmoid colon of patients with moderate-to-severe UC (n=550) enrolled to the UNIFI phase III clinical trial, a randomized, placebo controlled trial evaluating the efficacy of ustekinumab, a monoclonal antibody (mAb) that blocks the p40 subunit shared by the human IL-12 and IL-23 cytokines. […] These findings were replicated in 2 additional independent cohorts of UC patients where transcriptomic data was available in publicly accessible repositories (GSE50971 and GSE16879, FIG. 4A). […] Consistent with IL23 being an important driver of IL22, there was a significant correlation between the enrichment scores for IL23 and IL22 in colonic biopsies.\nAlthough IL23 and IL22 responsive transcriptional programs were enriched at population level in UC patients, there was considerable variation in magnitude of enrichment. Since it was unlikely that this variation was being driven by differences in disease severity (all patients in the UNIFI trial program had moderate to severe UC, with Mayo endoscopy subscores of either 2 or 3), the possibility that this molecular heterogeneity might represent important differences in underlying disease immunobiology was considered. If molecular stratification of UC patients according to the magnitude of IL23/IL22 responsive transcript enrichment was biologically and/or clinically meaningful, it was reasoned that UC patients with different degrees of enrichment would experience different outcomes and follow different trajectories. To test this hypothesis, patients from the UNIFI trial program were stratified according to IL23 or IL22 enrichment scores (in colonic biopsies sampled immediately prior initiation with ustekinumab), and whether these differences in molecular phenotype impacted treatment response were evaluated. Enrichment scores in colonic tissue, for both cytokines, could differentiate responders and non-responders to ustekinumab induction therapy (including patients on 130 mg and 6 mg/kg dose), although, the IL22-responsive transcriptional program was especially discriminatory (FIGS. 3D-3F and FIGS. 5A-5D). […]"}, "human colonoids": {"test_system": "human colonoids", "assay": "Cytokine treatment of human colonoids, RNA-seq", "assay_type": "cell-based", "conditions": "human colonoids, 24 hours", "method": "All patients provided informed consent (NRES/IRAS id:15/LO/1998). Subsequent establishment of human colonoids was performed as previously described by Sato et al (48). The crypts were cultured in growth medium containing advanced Dulbecco's modified Eagle's medium/F12, penicillin/streptomycin (100 units/mL), 10 mM HEPES, 2 mM Glutamax, supplements N2 (1×) and B27 (1×), 50 ng/mL mouse epidermal growth factor (all from Life Technologies; Carlsbad, Calif.), 1 mM N-acetylcysteine (Sigma-Aldrich; St. Louis, Mo.), 50% v/v Wnt3a conditioned medium, 10% v/v R-spondin-1 conditioned medium, 100 ng/mL murine recombinant noggin protein (Peprotech; Rocky Hill, N.J.), 10 nM gastrin (Sigma-Aldrich), 500 nM A83-01 (Bio-techne; Minneapolis, Minn.), 10 μM SB202190 (Sigma-Aldrich) and 10 mM Nicotinamide (Sigma-Aldrich). 10 μM Y-27632 (Sigma-Aldrich) was added to the culture medium for the initial 3 days. Medium was changed every 2 days. […] During the last 24 hours in differentiation medium, human colonoids were treated with human recombinant IL22 (10 ng/mL), IL17A (50 ng/mL), TNFα (10 ng/mL), IFNγ (20 ng/mL), IL13 (10 ng/mL) and IL22 (10 ng/mL)/IL17A (50 ng/mL) combination.\nas §1\nLibrary preparation and sequencing: A total amount of 3 μg RNA per sample was used as input material for the RNA sample preparations. Sequencing libraries were generated using NEBNextR Ultra™ RNA Library Prep Kit for IlluminaR (NEB, Ipswich, Mass.) following manufacturer's recommendations and index codes were added to attribute sequences to each sample. Briefly, mRNA was purified from total RNA using poly-T oligo-attached magnetic beads. Fragmentation was carried out using divalent cations under elevated temperature in NEBNext First Strand Synthesis Reaction Buffer (5×). First strand cDNA was synthesized using random hexamer primer and M-MuLV Reverse Transcriptase (RNase H-). Second strand cDNA synthesis was subsequently performed using DNA Polymerase I and RNase H. Remaining overhangs were converted into blunt ends via exonuclease/polymerase activities. After adenylation of 3′ ends of DNA fragments, NEBNext Adaptor with hairpin loop structure were ligated to prepare for hybridization. In order to select cDNA fragments of preferentially 150˜200 bp in length, the library fragments were purified with AMPure XP system (Beckman Coulter, Brea, Calif.). Then 3 μl USER Enzyme (NEB) was used with size-selected, adaptor-ligated cDNA at 37° C. for 15 minutes followed by 5 minutes at 95° C. before PCR. Then PCR was performed with Phusion High-Fidelity DNA polymerase, Universal PCR primers and Index (X) Primer. At last, PCR products were purified (AMPure XP system) and library quality was assessed on the Agilent Bioanalyzer 2100 system. The clustering of the index-coded samples was performed on a cBot Cluster Generation System using HiSeq PE Cluster Kit cBot-HS (Illumina; San Diego, Calif.) according to the manufacturer's instructions. After cluster generation, the paired-end libraries were sequenced on an Illumina HiSeq platform. […]"}, "[3]": {"conditions": "patients with low IL22 enrichment scores (ES<0)"}}}
{"molecule": "IL23: recombinant IL23 (10 ng/ml, Biolegend) used to stimulate LPMC", "values": [{"measurement": "GZMB transcript fold change", "setting": "[1]; IL23 10 ng/ml, 4 hours", "value": 1.40}, {"measurement": "IFNG transcript fold change", "setting": "[1]; IL23 10 ng/ml, 4 hours", "value": 1.77}, {"measurement": "IL17A transcript fold change", "setting": "[1]; IL23 10 ng/ml, 4 hours", "value": 1.24}, {"measurement": "IL17F transcript fold change", "setting": "[1]; IL23 10 ng/ml, 4 hours", "value": 1.70}, {"measurement": "IL22 transcript fold change", "setting": "[1]; IL23 10 ng/ml, 4 hours", "value": 1.69}, {"measurement": "TNFRSF8 transcript fold change", "setting": "[1]; IL23 10 ng/ml, 4 hours", "value": 1.41}, {"measurement": "differentially expressed transcripts", "setting": "[1]; filtered at P<0.01", "value": 222, "unit": "transcripts"}, {"measurement": "downregulated transcripts", "setting": "[1]; filtered at P<0.01", "value": 110}, {"measurement": "upregulated transcripts", "setting": "[1]; filtered at P<0.01", "value": 112}]}
{"molecule": "ustekinumab: monoclonal antibody blocking the p40 subunit shared by IL-12 and IL-23; heavy chain SEQ ID NO:10, light chain SEQ ID NO:11", "values": [{"measurement": "outcomes in UC patients with high IL22 enrichment scores", "setting": "[2]; high IL22 enrichment scores", "value": "broadly comparable to placebo treated patients"}, {"measurement": "clinical remission", "setting": "[2]; [3]", "value": 26.6, "unit": "%"}, {"measurement": "deep remission (clinical, endoscopic and histologic remission)", "setting": "[2]; [3]", "value": 22.7, "unit": "%"}, {"measurement": "mucosal healing", "setting": "[2]; [3]", "value": 25.9, "unit": "%"}, {"measurement": "deep remission (clinical, endoscopic and histologic remission)", "setting": "[2]; unstratified UC patients", "value": 11.7, "unit": "%"}, {"measurement": "mucosal healing", "setting": "[2]; unstratified UC patients", "value": 15.6, "unit": "%"}, {"measurement": "clinical remission", "setting": "[2]; unstratified UC patients, ustekinumab induction 130 mg and 6 mg/kg pooled", "value": 13.4, "unit": "%"}]}
{"molecule": "IL13: human recombinant IL13 (10 ng/mL) used on human colonoids", "values": [{"measurement": "regulation of chemokine expression", "setting": "human colonoids", "value": "strongly upregulate both eosinophil-active chemokines CCL24 and CCL26"}]}
{"molecule": "B1", "values": [{"measurement": "regulation of chemokine expression", "setting": "human colonoids", "value": "strongly upregulated CXCL9 and CXCL10"}]}
